Tests used:
Assay in all cases: HotSpot [3H]SAM filter-binding methyltransferase assay
Assay type in all cases: biochemical
NSD2 = molecular target: T1, NSD2 (Homo sapiens, UniProt O96028); settings: nucleosomes […], […] SAM, pH […] DTT, […] °C
T1 construct: full length (residues 2-1365), N-terminal His tag, insect cell/baculovirus
T1 sequence (O96028 2-1365): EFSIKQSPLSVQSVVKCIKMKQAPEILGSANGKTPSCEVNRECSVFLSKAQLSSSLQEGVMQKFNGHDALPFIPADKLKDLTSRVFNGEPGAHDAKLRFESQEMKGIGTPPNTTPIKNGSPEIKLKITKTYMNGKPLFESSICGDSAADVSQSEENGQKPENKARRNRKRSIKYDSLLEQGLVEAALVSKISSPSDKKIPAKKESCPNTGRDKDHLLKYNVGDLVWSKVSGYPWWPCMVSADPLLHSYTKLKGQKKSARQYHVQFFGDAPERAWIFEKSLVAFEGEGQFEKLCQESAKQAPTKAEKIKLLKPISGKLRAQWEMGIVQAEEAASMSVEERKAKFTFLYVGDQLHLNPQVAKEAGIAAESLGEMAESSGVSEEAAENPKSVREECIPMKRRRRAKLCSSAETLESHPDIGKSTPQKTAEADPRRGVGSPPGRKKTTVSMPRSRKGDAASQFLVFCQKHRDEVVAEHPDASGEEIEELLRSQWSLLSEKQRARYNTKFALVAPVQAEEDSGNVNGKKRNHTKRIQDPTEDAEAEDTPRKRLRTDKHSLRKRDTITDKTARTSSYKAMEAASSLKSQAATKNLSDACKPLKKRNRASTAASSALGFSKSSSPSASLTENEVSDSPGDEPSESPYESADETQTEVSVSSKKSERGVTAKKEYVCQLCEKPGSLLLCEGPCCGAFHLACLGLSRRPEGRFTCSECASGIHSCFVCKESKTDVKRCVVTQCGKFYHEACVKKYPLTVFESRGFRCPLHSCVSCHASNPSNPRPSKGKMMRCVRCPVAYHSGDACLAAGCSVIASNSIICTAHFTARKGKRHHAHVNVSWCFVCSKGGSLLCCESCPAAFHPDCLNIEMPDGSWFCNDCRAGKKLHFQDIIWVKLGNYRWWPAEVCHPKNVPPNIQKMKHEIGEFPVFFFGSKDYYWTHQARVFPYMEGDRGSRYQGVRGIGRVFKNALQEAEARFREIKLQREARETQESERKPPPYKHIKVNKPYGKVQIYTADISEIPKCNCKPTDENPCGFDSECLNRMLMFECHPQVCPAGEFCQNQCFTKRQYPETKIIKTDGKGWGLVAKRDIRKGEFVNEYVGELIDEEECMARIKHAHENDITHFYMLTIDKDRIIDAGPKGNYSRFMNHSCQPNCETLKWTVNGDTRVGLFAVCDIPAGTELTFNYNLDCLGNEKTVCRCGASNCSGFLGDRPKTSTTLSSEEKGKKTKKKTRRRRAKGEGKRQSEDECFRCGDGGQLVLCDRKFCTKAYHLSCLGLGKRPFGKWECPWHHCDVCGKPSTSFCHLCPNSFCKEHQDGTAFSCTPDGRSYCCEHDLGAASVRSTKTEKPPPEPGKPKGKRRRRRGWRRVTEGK

NSD3 = molecular target: T2, NSD3 (Homo sapiens, UniProt Q9BZ95); set-up: residues 1021-1322, GST fusion, E. coli; settings: nucleosomes, […] SAM, Bicine pH […] DTT, […] °C, single experiment
T2 sequence (Q9BZ95 1021-1322): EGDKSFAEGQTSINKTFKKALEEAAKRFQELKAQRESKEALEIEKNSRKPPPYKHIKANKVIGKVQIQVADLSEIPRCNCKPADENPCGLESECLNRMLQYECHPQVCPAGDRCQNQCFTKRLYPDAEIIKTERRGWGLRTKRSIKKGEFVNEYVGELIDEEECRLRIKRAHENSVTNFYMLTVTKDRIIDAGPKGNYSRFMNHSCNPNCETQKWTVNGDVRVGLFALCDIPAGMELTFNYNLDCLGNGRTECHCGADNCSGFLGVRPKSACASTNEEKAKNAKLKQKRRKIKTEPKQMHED

NSD1 = molecular target: T3, NSD1 (Homo sapiens, UniProt Q96L73); settings: nucleosomes, […] SAM, pH […] MgCl2, […] DTT, […] °C, single experiment
T3 construct: residues 1538-2696, N-terminal His tag, insect cell/baculovirus
T3 sequence (Q96L73 1538-2696): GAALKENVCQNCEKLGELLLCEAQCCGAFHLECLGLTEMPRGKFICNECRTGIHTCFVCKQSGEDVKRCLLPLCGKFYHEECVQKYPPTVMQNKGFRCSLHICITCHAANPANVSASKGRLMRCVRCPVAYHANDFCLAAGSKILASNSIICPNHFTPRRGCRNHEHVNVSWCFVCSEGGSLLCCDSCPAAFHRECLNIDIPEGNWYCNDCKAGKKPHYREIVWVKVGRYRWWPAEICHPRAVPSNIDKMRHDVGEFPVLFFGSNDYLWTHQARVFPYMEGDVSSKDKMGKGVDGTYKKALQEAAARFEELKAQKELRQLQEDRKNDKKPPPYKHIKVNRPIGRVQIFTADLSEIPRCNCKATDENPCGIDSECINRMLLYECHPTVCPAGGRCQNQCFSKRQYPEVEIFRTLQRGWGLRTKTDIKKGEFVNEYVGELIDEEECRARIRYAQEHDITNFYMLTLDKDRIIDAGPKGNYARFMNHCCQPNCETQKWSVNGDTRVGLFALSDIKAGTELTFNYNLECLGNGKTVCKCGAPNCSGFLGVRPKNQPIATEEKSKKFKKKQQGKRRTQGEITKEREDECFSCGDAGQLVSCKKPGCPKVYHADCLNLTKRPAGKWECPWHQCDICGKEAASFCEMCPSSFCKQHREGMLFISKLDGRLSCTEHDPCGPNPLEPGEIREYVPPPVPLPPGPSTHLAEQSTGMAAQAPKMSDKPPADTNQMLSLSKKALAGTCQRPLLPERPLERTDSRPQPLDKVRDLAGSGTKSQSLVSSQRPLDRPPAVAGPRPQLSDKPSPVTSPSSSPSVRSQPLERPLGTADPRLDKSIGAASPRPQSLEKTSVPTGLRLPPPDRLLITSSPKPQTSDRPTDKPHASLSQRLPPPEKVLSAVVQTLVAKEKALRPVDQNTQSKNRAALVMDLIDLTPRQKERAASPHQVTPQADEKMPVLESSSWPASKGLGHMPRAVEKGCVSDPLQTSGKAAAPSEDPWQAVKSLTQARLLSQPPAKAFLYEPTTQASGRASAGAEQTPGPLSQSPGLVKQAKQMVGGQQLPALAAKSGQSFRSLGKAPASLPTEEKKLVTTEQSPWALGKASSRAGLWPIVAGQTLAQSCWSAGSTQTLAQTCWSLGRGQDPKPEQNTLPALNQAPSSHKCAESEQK

IC50 (NSD2)	IC50 (NSD3)	IC50 (NSD1)	IC50 (NSD2; compound is redox-active)	SMILES
1700 nM	1300 nM	2400 nM	–	CC1(C)CCC(CN2CCN(c3ccc(C(=O)NS(=O)(=O)c4ccc(NCC5CCOCC5)c([N+](=O)[O-])c4)c(Oc4cnc5[nH]ccc5c4)c3)CC2)=C(c2ccc(Cl)cc2)C1 [ABT-199]
–	260 nM	110 nM	170 nM	O=C1C(Cl)=C(NCCN2CCOCC2)C(=O)c2ncccc21 [DA3003-1]
8500 nM	2300 nM	12000 nM	–	COc1cccc(-n2nc(C(=O)O)cc2-c2ccc(C3CCCCC3)c(Cl)c2)c1 [TC LPA5 4]

Source: doi:10.1101/208439v1 (biorxiv, 2017)
